Measured values published in the NIST ThermoML archive (doi:10.1021/je800248w).

Legend:
[1] = molar heat capacity at constant pressure; xn = mol fraction of the nth substance listed; conditions: 101.3 kPa, Liquid, Small sample (50 mg) DSC
[2] = excess molar enthalpy (molar enthalpy of mixing); xn = mol fraction of the nth substance listed; conditions: 101 kPa, Liquid, Calvet calorimetry

CCOS(=O)(=O)[O-].CCn1cc[n+](C)c1 [1-ethyl-3-methylimidazolium ethyl sulfate] + O
Conditions	excess molar enthalpy [kcal/mol]	molar heat capacity at constant pressure [J/K/mol]
[1], 283.15 K, x2 = 0	–	365
[1], 283.15 K, x2 = 0.212	–	294
[1], 283.15 K, x2 = 0.4079	–	235
[1], 283.15 K, x2 = 0.5925	–	179
[1], 283.15 K, x2 = 0.766	–	142
[1], 283.15 K, x2 = 0.8495	–	115
[1], 283.15 K, x2 = 0.9282	–	95
[1], 283.15 K, x2 = 0.9684	–	83
[1], 283.15 K, x2 = 0.9916	–	78
[1], 293.15 K, x2 = 0	–	371
[1], 293.15 K, x2 = 0.212	–	297
[1], 293.15 K, x2 = 0.4079	–	239
[1], 293.15 K, x2 = 0.5925	–	184
[1], 293.15 K, x2 = 0.766	–	145
[1], 293.15 K, x2 = 0.8495	–	118
[1], 293.15 K, x2 = 0.9282	–	96
[1], 293.15 K, x2 = 0.9684	–	85
[1], 293.15 K, x2 = 0.9916	–	78
[1], 303.15 K, x2 = 0	–	380
[1], 303.15 K, x2 = 0.212	–	304
[1], 303.15 K, x2 = 0.4079	–	245
[1], 303.15 K, x2 = 0.5925	–	190
[1], 303.15 K, x2 = 0.766	–	149
[1], 303.15 K, x2 = 0.8495	–	122
[1], 303.15 K, x2 = 0.9282	–	98
[1], 303.15 K, x2 = 0.9684	–	86
[1], 303.15 K, x2 = 0.9916	–	79
[1], 313.15 K, x2 = 0	–	386
[1], 313.15 K, x2 = 0.212	–	309
[1], 313.15 K, x2 = 0.4079	–	249
[1], 313.15 K, x2 = 0.5925	–	193
[1], 313.15 K, x2 = 0.766	–	152
[1], 313.15 K, x2 = 0.8495	–	124
[1], 313.15 K, x2 = 0.9282	–	100
[1], 313.15 K, x2 = 0.9684	–	87
[1], 313.15 K, x2 = 0.9916	–	79
[1], 323.15 K, x2 = 0	–	392
[1], 323.15 K, x2 = 0.212	–	314
[1], 323.15 K, x2 = 0.4079	–	253
[1], 323.15 K, x2 = 0.5925	–	197
[1], 323.15 K, x2 = 0.766	–	154
[1], 323.15 K, x2 = 0.8495	–	126
[1], 323.15 K, x2 = 0.9282	–	101
[1], 323.15 K, x2 = 0.9684	–	88
[1], 323.15 K, x2 = 0.9916	–	79
[1], 333.15 K, x2 = 0	–	397
[1], 333.15 K, x2 = 0.212	–	319
[1], 333.15 K, x2 = 0.4079	–	256
[1], 333.15 K, x2 = 0.5925	–	201
[1], 333.15 K, x2 = 0.766	–	157
[1], 333.15 K, x2 = 0.8495	–	127
[1], 333.15 K, x2 = 0.9282	–	102
[1], 333.15 K, x2 = 0.9684	–	88
[1], 333.15 K, x2 = 0.9916	–	80
[1], 343.15 K, x2 = 0	–	403
[1], 343.15 K, x2 = 0.212	–	324
[1], 343.15 K, x2 = 0.4079	–	260
[1], 343.15 K, x2 = 0.5925	–	204
[1], 343.15 K, x2 = 0.766	–	158
[1], 343.15 K, x2 = 0.8495	–	129
[1], 343.15 K, x2 = 0.9282	–	103
[1], 343.15 K, x2 = 0.9684	–	89
[1], 343.15 K, x2 = 0.9916	–	80
[2], 313.14 K, x2 = 0.2496	-0.109	–
[2], 313.14 K, x2 = 0.2497	-0.11	–
[2], 313.14 K, x2 = 0.4936	-0.183	–
[2], 313.14 K, x2 = 0.4951	-0.184	–
[2], 313.14 K, x2 = 0.7491	-0.231	–
[2], 313.14 K, x2 = 0.7495	-0.233	–
[2], 323.12 K, x2 = 0.2425	-0.116	–
[2], 323.12 K, x2 = 0.2486	-0.114	–
[2], 323.12 K, x2 = 0.4979	-0.189	–
[2], 323.12 K, x2 = 0.4991	-0.189	–
[2], 323.12 K, x2 = 0.7464	-0.221	–
[2], 323.12 K, x2 = 0.7481	-0.226	–
[2], 333.11 K, x2 = 0.2483	-0.119	–
[2], 333.11 K, x2 = 0.2496	-0.121	–
[2], 333.11 K, x2 = 0.496	-0.191	–
[2], 333.11 K, x2 = 0.4974	-0.189	–
[2], 333.11 K, x2 = 0.7476	-0.218	–
[2], 333.11 K, x2 = 0.7484	-0.218	–
[2], 348.12 K, x2 = 0.2492	-0.125	–
[2], 348.12 K, x2 = 0.2499	-0.125	–
[2], 348.12 K, x2 = 0.4948	-0.191	–
[2], 348.12 K, x2 = 0.498	-0.191	–
[2], 348.12 K, x2 = 0.7477	-0.199	–
[2], 348.12 K, x2 = 0.7483	-0.199	–

CCn1cc[n+](C)c1.O=S(=O)([O-])C(F)(F)F [1-ethyl-3-methylimidazolium trifluoromethanesulfonate] + O
Conditions	excess molar enthalpy [kcal/mol]	molar heat capacity at constant pressure [J/K/mol]
[1], 283.15 K, x2 = 0	–	353
[1], 283.15 K, x2 = 0.2259	–	283
[1], 283.15 K, x2 = 0.4351	–	226
[1], 283.15 K, x2 = 0.6152	–	181
[1], 283.15 K, x2 = 0.7835	–	135
[1], 283.15 K, x2 = 0.8614	–	114
[1], 283.15 K, x2 = 0.9353	–	94
[1], 283.15 K, x2 = 0.9712	–	80
[1], 283.15 K, x2 = 0.9924	–	76
[1], 293.15 K, x2 = 0	–	358
[1], 293.15 K, x2 = 0.2259	–	287
[1], 293.15 K, x2 = 0.4351	–	230
[1], 293.15 K, x2 = 0.6152	–	184
[1], 293.15 K, x2 = 0.7835	–	137
[1], 293.15 K, x2 = 0.8614	–	115
[1], 293.15 K, x2 = 0.9353	–	95
[1], 293.15 K, x2 = 0.9712	–	81
[1], 293.15 K, x2 = 0.9924	–	77
[1], 303.15 K, x2 = 0	–	366
[1], 303.15 K, x2 = 0.2259	–	294
[1], 303.15 K, x2 = 0.4351	–	236
[1], 303.15 K, x2 = 0.6152	–	189
[1], 303.15 K, x2 = 0.7835	–	140
[1], 303.15 K, x2 = 0.8614	–	118
[1], 303.15 K, x2 = 0.9353	–	97
[1], 303.15 K, x2 = 0.9712	–	83
[1], 303.15 K, x2 = 0.9924	–	78
[1], 313.15 K, x2 = 0	–	371
[1], 313.15 K, x2 = 0.2259	–	298
[1], 313.15 K, x2 = 0.4351	–	239
[1], 313.15 K, x2 = 0.6152	–	191
[1], 313.15 K, x2 = 0.7835	–	142
[1], 313.15 K, x2 = 0.8614	–	120
[1], 313.15 K, x2 = 0.9353	–	98
[1], 313.15 K, x2 = 0.9712	–	83
[1], 313.15 K, x2 = 0.9924	–	78
[1], 323.15 K, x2 = 0	–	376
[1], 323.15 K, x2 = 0.2259	–	302
[1], 323.15 K, x2 = 0.4351	–	242
[1], 323.15 K, x2 = 0.6152	–	193
[1], 323.15 K, x2 = 0.7835	–	144
[1], 323.15 K, x2 = 0.8614	–	122
[1], 323.15 K, x2 = 0.9353	–	99
[1], 323.15 K, x2 = 0.9712	–	84
[1], 323.15 K, x2 = 0.9924	–	78
[1], 333.15 K, x2 = 0	–	380
[1], 333.15 K, x2 = 0.2259	–	306
[1], 333.15 K, x2 = 0.4351	–	245
[1], 333.15 K, x2 = 0.6152	–	195
[1], 333.15 K, x2 = 0.7835	–	146
[1], 333.15 K, x2 = 0.8614	–	123
[1], 333.15 K, x2 = 0.9353	–	99
[1], 333.15 K, x2 = 0.9712	–	85
[1], 333.15 K, x2 = 0.9924	–	79
[1], 343.15 K, x2 = 0	–	384
[1], 343.15 K, x2 = 0.2259	–	311
[1], 343.15 K, x2 = 0.4351	–	249
[1], 343.15 K, x2 = 0.6152	–	197
[1], 343.15 K, x2 = 0.7835	–	148
[1], 343.15 K, x2 = 0.8614	–	125
[1], 343.15 K, x2 = 0.9353	–	100
[1], 343.15 K, x2 = 0.9712	–	85
[1], 343.15 K, x2 = 0.9924	–	79
[2], 313.13 K, x2 = 0.2487	0.168	–
[2], 313.13 K, x2 = 0.2495	0.168	–
[2], 313.13 K, x2 = 0.4958	0.269	–
[2], 313.13 K, x2 = 0.4972	0.269	–
[2], 313.13 K, x2 = 0.7477	0.242	–
[2], 323.12 K, x2 = 0.2476	0.166	–
[2], 323.12 K, x2 = 0.2495	0.167	–
[2], 323.12 K, x2 = 0.4959	0.276	–
[2], 323.12 K, x2 = 0.4969	0.275	–
[2], 323.12 K, x2 = 0.7471	0.259	–
[2], 323.12 K, x2 = 0.7474	0.258	–
[2], 333.13 K, x2 = 0.2482	0.167	–
[2], 333.13 K, x2 = 0.2485	0.167	–
[2], 333.13 K, x2 = 0.495	0.283	–
[2], 333.13 K, x2 = 0.4986	0.284	–
[2], 333.13 K, x2 = 0.7477	0.277	–
[2], 333.13 K, x2 = 0.7479	0.276	–
[2], 348.12 K, x2 = 0.2497	0.168	–
[2], 348.12 K, x2 = 0.2514	0.169	–
[2], 348.12 K, x2 = 0.4967	0.297	–
[2], 348.12 K, x2 = 0.4985	0.298	–
[2], 348.12 K, x2 = 0.748	0.308	–
[2], 348.12 K, x2 = 0.7481	0.307	–
